From article PMC9182007, “Statistical Methods in the Study of Protein Binding and Its Relationship to Drug Bioavailability in Breast Milk” (Molecules, 2022)
Read-outs that look alike come from different tables or passages of the source.

What was measured:
[1] = biological target: T1, human serum albumin (HSA) (Homo sapiens, UniProt P02768)
Procedure: (§1) High performance liquid chromatography was performed using immobilized human serum albumin column (HPLCHSA) and immobilized artificial membrane (HPLCIAM). HPLC was the source of the log k values (logarithm of retention factor), log kHSA and log kIAM.
(§2) High performance liquid chromatography was performed using a chromatography column with immobilized human serum albumin. The assay was performed on a Perkin Elmer Series 200 instrument connected to a UV-VIS spectrometer as detector. The analytical wavelength was the same for all compounds at 210 nm. […] The acetate buffer was prepared by dissolving 0.77 g of ammonium acetate in 1 L of distilled water. The pH was then adjusted with a concentrated ammonia solution using a pH meter.
(§3) The phase flow through the system was set to 0.9 mL/min as recommended by the column manufacturer. The solutions were delivered to the column using an autosampler syringe, the injection size was 10 µL. Since the column could not be thermostated, the room was kept at a constant temperature of 25 degrees Celsius.
(§4) Chromatographic data (retention coefficient, k, and derivative, log k) were obtained with TotalChrom software connected to an HPLC instrument. […] The experiment was then repeated and the collected retention rates were the mean values of both series.

[2] = HPLC on immobilized artificial membrane column (HPLCIAM); assay type: physicochemical; details: for log k IAM: Table S5, IAM column, pH 7.4; for k IAM: Table S5, retention factor, IAM column, phosphate buffer pH 7.4/acetonitrile 80:20; for kIAM / log kIAM: Table S9, external group
Procedure: as §1
The second experiment was performed using an immobilized artificial membrane (IAM) column. The assay was also performed on a Perkin Elmer Series 200 instrument connected to a UV-VIS spectrometer as the detector. The analytical wavelength was the same for all compounds, at 210 nm. […] The mobile phase was a mixture of 10 mM phosphate buffer pH 7.4 and acetonitrile in the ratio 80:20 (v/v). The phosphate buffer was obtained by dissolving the finished tablet in the appropriate amount of distilled water (1 tablet per 200 mL). In this case, it was not necessary to adjust the pH of the buffer using a pH meter.
The phase flow through the system was set to 0.5 mL/min as recommended by the column manufacturer. The solutions were delivered to the column using an autosampler syringe, the injection size was 10 µL.
The experiment was then repeated and the collected retention rates were the mean values of both series.

[3] = biological target: T1, human serum albumin (HSA); assay: in vitro; details: immobilized hsa column, pH 7.4
Procedure: as §1, §2, §3, §4

[4] = biological target: T2, bovine serum albumin (BSA) (Bos taurus, UniProt P02769); assay: NP TLC on plates impregnated with bovine serum albumin; assay type: binding; details: for NP (Rf, BSA-impregnated NP plate): Table S3, NP plate impregnated with 2 mg/mL BSA, pH 7.4 mobile phase; for NP (Rf value from the NP plate impregnated with 2 mg/mL BSA solution): Table S8, external group
T2 construct: purchased Sigma Aldrich

[5] = biological target: T2, bovine serum albumin (BSA); assay: RP TLC on plates impregnated with bovine serum albumin; assay type: binding; details: for RP (Rf, BSA-impregnated RP plate): Table S4, RP plate impregnated with 2 mg/mL BSA, pH 7.4 mobile phase; for RP (Rf value from the RP plate impregnated with 2 mg/mL BSA solution): Table S8, external group
Source text: Chromatographic descriptors were obtained in experiments, thin layer chromatography in normal (NP TLC) and reversed mode (RP TLC). The stationary phase was modified with bovine serum albumin (BSA). TLC was the source of retention factor (Rf) values, denoted in statistical models as NP and RP.
(§5) For TLC chromatography, glass plates 20 × 20 cm from Merck, covered with silica gel with the addition of a fluorescent indicator, were used. Normal phase (NP) plates were used with standard Merck TLC Silica gel 60 F254 plates, while in reverse phase (RP) silanized plates RP-2: Merck TLC Silica gel 60 RP-2 F254 were used.
The stationary phase of the plates, both NP and RP, was modified with an aqueous solution of bovine serum albumin purchased from Sigma Aldrich (bovine serum albumin, lyophilized powder).
The impregnation of the plates was carried out with a 2 mg/mL solution applied to the surface using a Desaga SG 1 hand sprayer; the plates were then air dried. […] Normal and reversed phase thin layer chromatography (NP TLC and RP TLC respectively) was performed using silica-gel-coated glass plates. Half of them were covered with 2 mg/mL bovine serum albumin solution and half remained pure.
(§6) The mobility of the compounds was also determined on the plates with no protein as a modifier. […] The acetate buffer (20 mM) was prepared by dissolving 1.54 g of ammonium acetate in 1 L of distilled water. The pH was then adjusted with a concentrated ammonia solution using a pH meter. The plates were developed in standard, vertical chromatographic chambers, each time using 100 mL of the mobile phase, after the chamber was previously saturated with solvent vapors for approximately 1 h.
(§7) The unfolded-protein-impregnated plates and the control plates were scanned with a Desaga CD 60 densitometer. The values of the delay factor (Rf) were collected, i.e., the ratio of the distance traveled by the substance to be analyzed to the distance traveled through the front of the mobile phase. […] The experiment was repeated (for both BSA-coated and control plates) and the Rf values pooled are the mean of both series of experiments.

[6] = NP TLC on non-impregnated control plates; assay type: physicochemical; details: for CNP (Rf, control NP plate): Table S3, non-impregnated NP plate, acetonitrile/acetate buffer pH 7.4/methanol 60:20:20; for CNP (Rf value from the non-impregnated NP plate, control): Table S8, external group
Procedure: as §5
(§8) Normal and reversed phase thin layer chromatography (NP TLC and RP TLC respectively) was performed using silica-gel-coated glass plates. Half of them were covered with 2 mg/mL bovine serum albumin solution and half remained pure.
as §6, §7

plasma protein = details: ref DrugBank [7], cited from earlier work
[7] = Table S1, coded 1/0; ref DrugBank [7]; cited from earlier work
[8] = RP TLC on non-impregnated control plates; assay type: physicochemical; details: for CRP (Rf, control RP plate): Table S4, non-impregnated RP plate, acetonitrile/acetate buffer pH 7.4/methanol 60:20:20; for CRP (Rf value from the non-impregnated RP plate, control): Table S8, external group
Procedure: as §5, §8, §6, §7

[9] = Table S5, retention factor, HSA column, pH 7.4, 25 degrees Celsius
[10] = Table S1, plasma protein binding given as fraction
[11] = human, immobilized hsa column, pH 7.4
[12] = Table S6, external group (n = 38), given as fraction

T2 sequence (P02769 25-607): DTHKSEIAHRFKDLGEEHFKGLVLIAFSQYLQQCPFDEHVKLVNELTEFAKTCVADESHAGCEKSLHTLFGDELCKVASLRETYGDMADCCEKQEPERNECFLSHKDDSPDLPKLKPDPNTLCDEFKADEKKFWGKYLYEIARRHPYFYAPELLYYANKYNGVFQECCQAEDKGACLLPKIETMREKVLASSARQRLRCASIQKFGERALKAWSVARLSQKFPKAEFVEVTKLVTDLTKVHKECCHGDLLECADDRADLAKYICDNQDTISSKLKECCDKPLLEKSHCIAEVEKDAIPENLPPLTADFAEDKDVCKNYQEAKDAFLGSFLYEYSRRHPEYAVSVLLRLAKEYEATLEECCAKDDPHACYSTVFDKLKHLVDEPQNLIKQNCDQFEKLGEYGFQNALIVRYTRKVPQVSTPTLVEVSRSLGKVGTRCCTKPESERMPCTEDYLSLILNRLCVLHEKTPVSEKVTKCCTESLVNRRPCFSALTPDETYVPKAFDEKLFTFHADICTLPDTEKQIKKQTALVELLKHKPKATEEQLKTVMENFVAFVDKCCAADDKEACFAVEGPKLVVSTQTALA
T1 sequence (P02768 25-609): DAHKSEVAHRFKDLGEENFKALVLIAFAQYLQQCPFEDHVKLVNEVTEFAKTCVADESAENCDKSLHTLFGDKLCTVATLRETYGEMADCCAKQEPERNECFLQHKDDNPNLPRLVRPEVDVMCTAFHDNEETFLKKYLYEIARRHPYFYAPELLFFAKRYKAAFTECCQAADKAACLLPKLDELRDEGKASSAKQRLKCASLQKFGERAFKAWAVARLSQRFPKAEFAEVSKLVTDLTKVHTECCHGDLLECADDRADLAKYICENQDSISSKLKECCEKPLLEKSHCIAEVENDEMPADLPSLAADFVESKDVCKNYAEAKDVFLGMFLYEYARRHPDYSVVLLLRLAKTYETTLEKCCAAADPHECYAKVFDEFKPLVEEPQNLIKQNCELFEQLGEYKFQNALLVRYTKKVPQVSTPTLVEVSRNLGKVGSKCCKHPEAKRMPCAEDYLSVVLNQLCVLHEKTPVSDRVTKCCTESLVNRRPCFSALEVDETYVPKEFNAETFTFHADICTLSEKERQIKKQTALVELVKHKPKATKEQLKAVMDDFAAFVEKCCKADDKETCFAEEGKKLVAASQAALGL

SMILES	log k IAM [2]	k IAM [2]	NP (Rf, BSA-impregnated NP plate) [4]	log k HSA ([1]; Table S5, HSA, pH 7.4)	k HSA [1, 9]	RP (Rf, BSA-impregnated RP plate) [5]	CNP (Rf, control NP plate) [6]	PB (plasma protein; [10])	CNS+/- [7]	CRP (Rf, control RP plate) [8]	other results
Cc1ccc(O)c([C@H](CCN(C(C)C)C(C)C)c2ccccc2)c1 [tolterodine]	-0.68	0.21									k HSA ([1]; pH 7.4): 2.9; chromatographic logD [3]: 0.46
CCN(Cc1ccncc1)C(=O)C(CO)c1ccccc1 (stereo not shown) [tropicamid]	0.03	1.06	0.86	-0.82	0.15	0.83	0.85	0.45	1	0.83	
Cc1cc2c(s1)Nc1ccccc1N=C2N1CCN(C)CC1 [olanzapine]	1.31	20.31									k HSA ([1]; pH 7.4): 4.83; chromatographic logD [3]: 0.68
CO[C@H]1/C=C/O[C@@]2(C)Oc3c(C)c(O)c4c(O)c(c(/C=N/N5CCN(C)CC5)c(O)c4c3C2=O)NC(=O)/C(C)=C\C=C\[C@H](C)[C@H](O)[C@@H](C)[C@@H](O)[C@@H](C)[C@H](OC(C)=O)[C@@H]1C [rifampicin]											NP (Rf value from the NP plate impregnated with 2 mg/mL BSA solution) [4]: 0.77; kHSA ([1]; Table S9, external group): 0.03; log kHSA [1, 11]: -1.53; kIAM [2]: 8.37; log kIAM [2]: 0.92; RP (Rf value from the RP plate impregnated with 2 mg/mL BSA solution) [5]: 0.94; CNP (Rf value from the non-impregnated NP plate, control) [6]: 0.73; PB (plasma protein; [12]): 0.89; CRP (Rf value from the non-impregnated RP plate, control) [8]: 0.95
C[C@]12CC[C@@H]3c4ccc(OC(=O)c5ccccc5)cc4CC[C@H]3[C@@H]1CC[C@@H]2O [estradiol benzoate]	0.84	6.92	0.98			0.62	0.97	0.95		0.63	
CCCc1nc2c(C)cc(-c3nc4ccccc4n3C)cc2n1Cc1ccc(-c2ccccc2C(=O)O)cc1 [telmisartan]	0.67	4.68	0.90			0.85	0.90	0.995	1	0.87	
CC(C)(C)NC[C@H](O)COc1nsnc1N1CCOCC1 [timolol]											NP (Rf value from the NP plate impregnated with 2 mg/mL BSA solution) [4]: 0.32; kHSA ([1]; Table S9, external group): 0.13; kIAM [2]: 2.88; log kIAM [2]: 0.46; RP (Rf value from the RP plate impregnated with 2 mg/mL BSA solution) [5]: 0.97; CNP (Rf value from the non-impregnated NP plate, control) [6]: 0.34; PB (plasma protein; [12]): 0.10; CRP (Rf value from the non-impregnated RP plate, control) [8]: 0.97
OCCOCCN1CCN(C2=Nc3ccccc3Sc3ccccc32)CC1 [quetiapine]	1.23	17.02	0.68		2.48	0.69	0.68	0.83	1	0.73	log k HSA [1, 11]: 0.39
CC(C)NCC(O)COc1ccc(COCCOC(C)C)cc1 (stereo not shown) [bisoprolol]	0.83	6.74	0.66		1.07	0.56	0.67	0.3	0	0.57	
CN(C)CCOC(c1ccccc1)c1ccccc1 [diphenhydramin]	0.56	3.66	0.33	0.27	1.88	0.54	0.42	0.985		0.58	
O=C(CCCN1CCC(O)(c2ccc(Cl)cc2)CC1)c1ccc(F)cc1 [haloperidol]	1.38	23.74	0.65	0.68	4.8	0.64	0.66	0.92		0.61	
OC(CCN1CCCCC1)(c1ccccc1)C1CC2C=CC1C2 (stereo not shown) [biperiden]	1.62	41.47	0.65		0.58	0.85	0.68	0.6		0.87	log k HSA [1, 11]: -0.24
COc1ccnc(C[S+]([O-])c2nc3ccc(OC(F)F)cc3[nH]2)c1OC (stereo not shown) [pantoprazole]	0.34	2.19	0.92		2.09	0.83	0.93	0.98	0	0.85	log k HSA [1, 11]: 0.32
CN(C)CCc1c[nH]c2ccc(C[C@H]3COC(=O)N3)cc12 [zolmitriptane]	0.52	3.30	0.29	0.23	1.7	0.86	0.31	0.25		0.86	
CCOc1ccc(/C=C2\NCCc3cc(OCC)c(OCC)cc32)cc1OCC [drotaverine]	1.49	31.24	0.59		1.91	0.58	0.61		1	0.55	log k HSA [1, 11]: 0.28
COc1ccc(CCN2CCC(Nc3nc4ccccc4n3Cc3ccc(F)cc3)CC2)cc1 [astemizol]	1.42	26.27	0.61		13.32	0.62	0.62	0.967		0.65	log k HSA [1, 11]: 1.12
CC(=O)[C@H]1CC[C@H]2[C@@H]3CCC4=CC(=O)CC[C@]4(C)[C@H]3CC[C@]12C [progesterone]	1.54	34.99	0.96	0.76	5.7	0.68	0.96	0.975		0.71	
C=CCN1C[C@H](C(=O)N(CCCN(C)C)C(=O)NCC)C[C@@H]2c3cccc4[nH]cc(c34)C[C@H]21 [carbegoline]	1.23	17.05	0.68	0.51	3.23	0.68	0.68	0.41		0.68	
CC[C@H]1OC(=O)[C@H](C)[C@@H](O[C@H]2C[C@@](C)(OC)[C@@H](O)[C@H](C)O2)[C@H](C)[C@@H](O[C@@H]2O[C@H](C)C[C@H](N(C)C)[C@H]2O)[C@](C)(O)C[C@@H](C)/C(=N\OCOCCOC)[C@H](C)[C@@H](O)[C@]1(C)O [roxitromicin]			0.92	0.01	1.03	0.79	0.91	0.96		0.80	
CCC1(c2ccccc2)C(=O)NCNC1=O [primidone]											NP (Rf value from the NP plate impregnated with 2 mg/mL BSA solution) [4]: 0.93; kHSA ([1]; Table S9, external group): 0.22; log kHSA ([1]; Table S9, external group): -0.66; kIAM [2]: 2.02; log kIAM [2]: 0.31; RP (Rf value from the RP plate impregnated with 2 mg/mL BSA solution) [5]: 0.97; CNP (Rf value from the non-impregnated NP plate, control) [6]: 0.90; CRP (Rf value from the non-impregnated RP plate, control) [8]: 0.93
CCCCCOC(=O)Nc1nc(=O)n([C@@H]2O[C@H](C)[C@@H](O)[C@H]2O)cc1F [capecitabine]	0.04	1.11	0.92			0.89	0.92	0.6		0.90	
CC(CN1c2ccccc2Sc2ccccc21)N(C)C (stereo not shown) [promethazine]	1.17	14.96	0.42	0.73	5.35	0.47	0.43	0.93	1	0.49	
CCC[C@H](N[C@@H](C)C(=O)N1[C@H](C(=O)O)C[C@@H]2CCCC[C@@H]21)C(=O)OCC [perindopril]	-0.76	0.18	0.46		0.49	0.58	0.47	0.15	0	0.57	log k HSA [1, 11]: -0.31
